One assay has as its system Bifidobacteria. Kind of assay: Growth in the presence of butyrate (data not shown). To be noted: 10 mM butyrate. It counts as cell-based.
For another assay, the system named is lactic acid bacteria. The assay is described as above. It counts as cell-based. Particulars: 10 mM butyrate.

On to `CCCC(=O)O` [butyrate], for which the growth inhibition result with Bifidobacteria and in the assay with lactic acid bacteria was “not inhibited” throughout.

The values above are taken from US8241659B2, “Nutrition with lipids and non-digestible saccharides” (N. V. Nutricia, priority 2005, dated 2012).
